Values quoted from earlier work in patent US20110281813A1, “METHOD OF TREATING C-KIT POSITIVE RELAPSED ACUTE MYELOID LEUKEMIA” (priority 2008, published 2011).
Counter-ions that a name gives are not always drawn.

Test system: relapsed/ refractory AML

Question: With Cc1ccc(NC(=O)c2ccc(CN3CCN(C)CC3)cc2)cc1Nc1nccc(-c2cccnc2)n1 [Imatinib mesylate, 4-(4-methylpiperazin-1-ylmethyl)-N-[4-methyl-3-(4-(pyridin-3-yl)pyrimidin-2-ylamino)phenyl]-benzamide] as the molecule, how does the single agent activity read?
Answer: has single agent activity
